One test has as its target T1, human AT1 receptor (Homo sapiens, UniProt P30556).
T1 construct: expressed in transfected cells; membrane fraction
T1 sequence (P30556 1-359): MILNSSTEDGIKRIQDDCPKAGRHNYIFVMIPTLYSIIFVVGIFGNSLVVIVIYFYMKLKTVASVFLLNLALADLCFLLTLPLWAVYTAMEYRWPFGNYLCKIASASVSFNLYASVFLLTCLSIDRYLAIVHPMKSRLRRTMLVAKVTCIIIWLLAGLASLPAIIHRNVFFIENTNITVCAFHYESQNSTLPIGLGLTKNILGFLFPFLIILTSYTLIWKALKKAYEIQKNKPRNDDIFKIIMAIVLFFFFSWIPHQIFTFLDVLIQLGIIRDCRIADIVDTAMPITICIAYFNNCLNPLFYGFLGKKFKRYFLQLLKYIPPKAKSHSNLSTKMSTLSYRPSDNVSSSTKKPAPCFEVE
The test is described as follows: AT1 receptor antagonistic activity: [125I]-angiotensin II binding assay on human AT1 receptor-expressing CHO-K1 cellular membrane fraction. Particulars: 22.5 pM [125I]-angiotensin II, 1 hr room temperature. On the procedure: CHO-K1 cell (RIKEN, Japan) capable of stable expression of human AT1 receptor was cultured, recovered, suspended in homogenize buffer (10 mM NaHCO3 (pH 7.4), 5 mM EDTA, 1× Complete EDTA free) [manufactured by Roche, Switzerland], and homogenized. The homogenate was centrifuged at low-speed (900×g, 10 min, 4° C.), and the supernatant was recovered and ultracentrifuged (90,000×g, 1 hr, 4° C.). The supernatant was discarded, and the pellets were resuspended in suspension buffer (50 mM Tris (pH 7.4), 1 mM EDTA, 1× Complete EDTA free).
(9 μg) in the presence of AT1 membrane and test compound in 100 μl, (total reaction volume) of reaction buffer (50 mM Tris (pH 7.4), 10 mM MgCl2 supplemented or not supplemented with 0.3 mg/mL fatty acid-free bovine serum albumin [manufactured by Wako Pure Chemical Industries, Ltd., Japan]). The reaction mixture was incubated in 96 well polypropylene plate for 1 hr at room temperature, and the reaction was quenched by rapid filtration (96 well cell harvester) through a GF/C filter treated with wash buffer (50 mM Tris (pH 7.4)). Subsequently, the filter was washed 5 times with 0.3 mL of ice-cooled wash buffer. […] Total binding was measured in the presence of 1% DMSO and nonspecific binding was measured in the presence of […] Candesartan.

The target of another test is T2, human PPARγ (Homo sapiens, UniProt P37231).
T2 construct: expressed in transfected cells
T2 sequence (P37231 1-477 isoform P37231-2): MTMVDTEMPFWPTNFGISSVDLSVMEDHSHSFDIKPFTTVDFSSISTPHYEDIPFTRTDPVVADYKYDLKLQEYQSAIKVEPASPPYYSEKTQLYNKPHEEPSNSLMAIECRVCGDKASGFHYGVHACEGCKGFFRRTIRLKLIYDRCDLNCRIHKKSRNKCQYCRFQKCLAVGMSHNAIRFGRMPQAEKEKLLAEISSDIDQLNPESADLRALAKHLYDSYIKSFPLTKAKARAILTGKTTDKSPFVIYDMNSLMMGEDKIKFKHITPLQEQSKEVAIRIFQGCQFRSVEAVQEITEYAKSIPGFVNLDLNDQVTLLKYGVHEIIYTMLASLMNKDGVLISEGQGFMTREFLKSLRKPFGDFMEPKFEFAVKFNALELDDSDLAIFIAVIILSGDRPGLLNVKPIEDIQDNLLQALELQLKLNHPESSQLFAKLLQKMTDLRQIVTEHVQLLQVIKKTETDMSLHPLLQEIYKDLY
T2 sequence (P19793 1-462 partner): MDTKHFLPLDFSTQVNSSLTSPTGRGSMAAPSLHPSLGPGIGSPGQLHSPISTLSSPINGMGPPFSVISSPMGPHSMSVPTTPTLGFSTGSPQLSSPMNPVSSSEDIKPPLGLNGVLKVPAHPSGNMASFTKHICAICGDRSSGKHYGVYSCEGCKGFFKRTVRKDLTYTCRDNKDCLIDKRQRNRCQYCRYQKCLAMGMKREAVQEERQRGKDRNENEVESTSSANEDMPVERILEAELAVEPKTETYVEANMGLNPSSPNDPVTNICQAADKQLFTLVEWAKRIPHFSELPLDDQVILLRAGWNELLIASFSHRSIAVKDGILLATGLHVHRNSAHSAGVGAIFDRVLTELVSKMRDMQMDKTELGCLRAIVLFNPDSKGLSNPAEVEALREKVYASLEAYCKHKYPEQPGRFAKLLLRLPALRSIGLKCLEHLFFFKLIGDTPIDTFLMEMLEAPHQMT
The experiment in a line: PPARγ agonistic activity: luciferase reporter assay in PPARγ:RXRα:4ERPP/CHO-K1 cells. Particulars: CHO-K1, test compound 10^−6 M; luciferase activity of control compound X (1 μM) = 100%, non-administration group = 0%. In kind it is cell-based. The text has this: A CHO-K1 cell cultured in a 150 cm^2 cell culture flask [manufactured by Corning Costar Corporation, USA] comprising Ham's F12 medium [manufactured by INVITROGEN, USA] supplemented with 10% fetal bovine serum [manufactured by INVITROGEN, USA] was taken off by treating with 0.5 g/L trypsin-0.2 g/L EDTA (ethylenediamine tetraacetate) [manufactured by Life Technologies, Inc., USA], and then the cell was washed with PBS (Phosphate-buffered saline) [manufactured by INVITROGEN, USA], centrifuged (1000 rpm, 5 minutes) and suspended in PBS. Subsequently, DNA was introduced into the cell under the conditions shown below using GENE PULSER [manufactured by Bio-Rad Laboratories, USA].
Namely, to a cuvette having a 0.4 cm gap were added 8×10^6 cells and 10 μg of plasmid pVgRXR2-hPPARγ obtained in the above-mentioned (4) and 10 μg of reporter plasmid pGL3-4ERPP-TK neo obtained in the above-mentioned (3), which was subjected to electroporation at the voltage of 0.25 kV under the capacitance of […] Subsequently, the cell was transferred into a F12 medium comprising 10% fetal bovine serum and cultured for 24 hours, and then the cell was taken off again and centrifuged. Then, the pellet was suspended in Ham's F12 medium comprising 10% fetal bovine serum supplemented with 500 μg/ml of Geneticin [manufactured by INVITROGEN, USA] and 250 μg/ml of Zeocin [manufactured by INVITROGEN, USA]. The obtained suspension was diluted to the density of 10^4 cells/ml and inoculated in a 96-well plate [manufactured by Corning Costar Corporation, USA], which was cultured in a CO2 gas incubator at 37° C., whereby obtaining a Geneticin- and Zeocin-resistant transformant.
Subsequently, after the transformed cell line thus obtained was cultured in a 24-well plate [manufactured by Corning Costar Corporation, USA], a cell line in which expression of the luciferase was induced, i.e., PPARγ:RXRα:4ERPP/CHO-K1 cell was selected by the addition of 10 μM pioglitazone hydrochloride.
PPARγ:RXRα:4ERPP/CHO-K1 cells obtained in the above-mentioned (5) were cultured in F12 medium [manufactured by INVITROGEN, USA] containing 10% fetal bovine serum [manufactured by MOREGATE, Australia], seeded in a 96 well half-area white plate [manufactured by Corning Coster Corporation, USA] at 5×10^3 cells/well, and cultured in a CO2 incubator at 37° C. overnight.
Then, the medium was removed from the 96 well half-area white plate, hamF12 medium containing 0.1% fatty acid-free bovine serum albumin (BSA) (45 μl) and a test compound (5 μl) were added, and the mixture was cultured in the CO2 incubator at 37° C. for 1 day. After removing the medium, Picagene 7.5 [manufactured by Dai Nippon Inki, Japan] (20 μl) diluted 2-fold with HBSS (HANKS' BALANCED SALT SOLUTION) [manufactured by BIO […], USA] was added, and the mixture was stirred. Using 1420 ARVO Multilabel Counter [manufactured by PerkinElmer, USA], luciferase activity was measured. The percentage (%) was calculated from the luciferase activity of the test compound when the luciferase activity of the control compound (compound X: 5-[3-(4-{[2-(2-furyl)-5-methyl-1,3-oxazol-4-yl]methoxy}-3-methoxyphenyl)propyl]-1,3-oxazolidine-2,4-dione) (1 μM) was taken as 100% and the luciferase activity of the test compound non-administration group was taken as 0%.
(In a reporter assay the amount or activity of a reporter protein is the signal.)

The structures appear in SMILES notation.

One may read the IC50 as the concentration that inhibits the measured activity by half. With `CCCc1c(Cc2ccc(-c3ccccc3-c3noc(=O)[nH]3)cc2)c(=O)n(CC(=O)C(C)(C)C)c2ncnn12` [Example 10, 4-(3,3-dimethyl-2-oxobutyl)-6-{[2′-(5-oxo-4,5-dihydro-1,2,4-oxadiazol-3-yl)biphenyl-4-yl]methyl}-7-propyl[1,2,4]triazolo[1,5-a]pyrimidin-5(4H)-one], the half-inhibitory concentration (IC50) on human AT1 receptor was found to be 1.8 nM. At human PPARγ, this compound had an activation at 1 µM of 18%.

Turning to `CCCc1c(Cc2ccc(-c3ccccc3-c3noc(=O)[nH]3)cc2)c(=O)n(CC2CC2)c2ncnn12` [Example 21, 4-(cyclopropylmethyl)-6-{[2′-(5-oxo-4,5-dihydro-1,2,4-oxadiazol-3-yl)biphenyl-4-yl]methyl}-7-propyl[1,2,4]triazolo[1,5-a]pyrimidin-5(4H)-one], the IC50 on human AT1 receptor was 2 nM. The activation at 1 µM at human PPARγ worked out at 31%.

`CCCc1c(Cc2ccc(-c3ccccc3-c3noc(=O)[nH]3)cc2)c(=O)n(Cc2ccc(C(C)=O)cc2)c2ncnn12` [Example 28, 4-(4-acetylbenzyl)-6-{[2′-(5-oxo-4,5-dihydro-1,2,4-oxadiazol-3-yl)biphenyl-4-yl]methyl}-7-propyl[1,2,4]triazolo[1,5-a]pyrimidin-5(4H)-one] had an IC50 on human AT1 receptor of 3 nM. Also, the activation at 1 µM on human PPARγ came to 49%.

The compound `CCCc1c(Cc2ccc(-c3ccccc3-c3noc(=O)[nH]3)cc2)c(=O)n(CCC)c2ncnn12` [Example 29, 6-{[2′-(5-oxo-4,5-dihydro-1,2,4-oxadiazol-3-yl)biphenyl-4-yl]methyl}-4,7-dipropyl[1,2,4]triazolo[1,5-a]pyrimidin-5(4H)-one] had an IC50 at human AT1 receptor of 3 nM. The compound further had an activation at 1 µM at human PPARγ of 16%.

On to `CCCc1c(Cc2ccc(-c3ccccc3-c3noc(=O)[nH]3)cc2F)c(=O)n(Cc2ccc(OC)cc2OC)c2ncnn12` [Example 37, 4-(2,4-dimethoxybenzyl)-6-{[3-fluoro-2′-(5-oxo-4,5-dihydro-1,2,4-oxadiazol-3-yl)biphenyl-4-yl]methyl}-7-propyl[1,2,4]triazolo[1,5-a]pyrimidin-5(4H)-one], for which the IC50 on human AT1 receptor amounted to 2.5 nM. The activation at 1 µM at human PPARγ turned out to be 33%.

In turn, `CCCc1c(Cc2ccc(-c3ccccc3-c3noc(=O)[nH]3)cc2F)c(=O)n(-c2ccc(OC(C)C)cc2)c2ncnn12` [Example 43, 6-{[3-fluoro-2′-(5-oxo-4,5-dihydro-1,2,4-oxadiazol-3-yl)biphenyl-4-yl]methyl}-4-[4-(1-methylethoxy)phenyl]-7-propyl[1,2,4]triazolo[1,5-a]pyrimidin-5(4H)-one] registered a half-maximal inhibitory concentration (IC50) on human AT1 receptor of 2.1 nM. The compound also displayed an activation at 1 µM at human PPARγ of 34%.

As for `CCCc1c(Cc2ccc(-c3ccccc3-c3noc(=O)[nH]3)cc2)c(=O)n(C(C)CC)c2nc(C)nn12` (stereo not shown) [Example 68, 2-methyl-4-(1-methylpropyl)-6-{[2′-(5-oxo-4,5-dihydro-1,2,4-oxadiazol-3-yl)biphenyl-4-yl]methyl}-7-propyl[1,2,4]triazolo[1,5-a]pyrimidin-5(4H)-one], the IC50 at human AT1 receptor is 1.7 nM. The activation at 1 µM at human PPARγ turned out to be 17%.

For the compound `CCCc1c(Cc2ccc(-c3ccccc3-c3noc(=O)[nH]3)cc2)c(=O)n(CC2(C)CC2)c2nc(C)nn12` [Example 69, 2-methyl-4-[(1-methylcyclopropyl)methyl]-6-{[2′-(5-oxo-4,5-dihydro-1,2,4-oxadiazol-3-yl)biphenyl-4-yl]methyl}-7-propyl[1,2,4]triazolo[1,5-a]pyrimidin-5(4H)-one], at human AT1 receptor, the IC50 was 1.4 nM. On human PPARγ, this compound showed an activation at 1 µM of 27%.

For `CCCc1c(Cc2ccc(-c3ccccc3-c3noc(=O)[nH]3)cc2)c(=O)n(CC(C)(C)COC)c2nc(C)nn12` [Example 73, 4-(3-methoxy-2,2-dimethylpropyl)-2-methyl-6-{[2′-(5-oxo-4,5-dihydro-1,2,4-oxadiazol-3-yl)biphenyl-4-yl]methyl}-7-propyl[1,2,4]triazolo[1,5-a]pyrimidin-5(4H)-one], the half-inhibitory concentration (IC50) at human AT1 receptor was 1.5 nM. In addition, the activation at 1 µM on human PPARγ came out at 20%.

In turn, `CCCc1c(Cc2ccc(-c3ccccc3-c3noc(=O)[nH]3)cc2)c(=O)n(C2C=CCCC2)c2nc(C)nn12` (stereo not shown) [Example 74, 4-(cyclohex-2-en-1-yl)-2-methyl-6-{[2′-(5-oxo-4,5-dihydro-1,2,4-oxadiazol-3-yl)biphenyl-4-yl]methyl}-7-propyl[1,2,4]triazolo[1,5-a]pyrimidin-5(4H)-one] gave an IC50 on human AT1 receptor of 2.1 nM. The compound also gave an activation at 1 µM on human PPARγ of 25%.

For the compound `CCCc1c(Cc2ccc(-c3ccccc3-c3noc(=O)[nH]3)cc2)c(=O)n(C2CCCCC2)c2nc(C)nn12` [Example 78, 4-cyclohexyl-2-methyl-6-{[2′-(5-oxo-4,5-dihydro-1,2,4-oxadiazol-3-yl)biphenyl-4-yl]methyl}-7-propyl[1,2,4]triazolo[1,5-a]pyrimidin-5(4H)-one], the IC50 on human AT1 receptor turned out to be 1.8 nM. This compound had an activation at 1 µM at human PPARγ of 21%.

For the origin of these results see patent US8283353B2, “Fused ring compound and use thereof” (Takeda Pharmaceutical Company Limited, priority 2009, dated 2012).
